Laboratory results from ChEMBL document CHEMBL3352491, “Novel semicarbazides and ureas of primaquine with bulky aryl or hydroxyalkyl substituents: synthesis, cytostatic and antioxidative activity” (Eur J Med Chem, 2014).

Test system: not listed separately
Assay: Cytostatic activity against human MIAPaCa2 cells assessed as growth inhibition after 3 to 4 days by MTT assay
Assay type: functional, cell-based
Settings: MIA PaCa-2; call rule not given here

SMILES	IC50
CCOC(=O)NC(c1ccccc1)c1ccc(Cl)cc1 (stereo not drawn)	142 µM
CN(C(=O)n1nnc2ccccc21)C(c1ccccc1)c1ccccc1	26 µM
COc1cc(NC(C)CCCNC(=O)NNC(=O)N(C)C(c2ccccc2)c2ccccc2)c2ncccc2c1 (stereo not drawn)	18 µM
CN(C(=O)NN)C(c1ccccc1)c1ccccc1	127 µM
O=C(NC(c1ccccc1)c1ccc(Cl)cc1)NC(c1ccccc1)c1ccc(Cl)cc1 (stereo not drawn)	97 µM

Test system: not listed separately
Assay: Cytostatic activity against human Molt4/C8 cells assessed as growth inhibition after 3 to 4 days by MTT assay
Assay type: functional, cell-based
Settings: MOLT-4

SMILES	IC50
CCOC(=O)NC(c1ccccc1)c1ccc(Cl)cc1 (stereo not drawn)	> 250 µM
CN(C(=O)n1nnc2ccccc21)C(c1ccccc1)c1ccccc1	28 µM
COc1cc(NC(C)CCCNC(=O)NNC(=O)N(C)C(c2ccccc2)c2ccccc2)c2ncccc2c1 (stereo not drawn)	19 µM
CN(C(=O)NN)C(c1ccccc1)c1ccccc1	144 µM
O=C(NC(c1ccccc1)c1ccc(Cl)cc1)NC(c1ccccc1)c1ccc(Cl)cc1 (stereo not drawn)	> 250 µM

Test system: SW-620
Assay: Cytostatic activity against human SW620 cells assessed as growth inhibition after 3 to 4 days by MTT assay
Assay type: functional, cell-based
Settings: not given

SMILES	IC50
CCOC(=O)NC(c1ccccc1)c1ccc(Cl)cc1 (stereo not drawn)	> 100 µM
CN(C(=O)n1nnc2ccccc21)C(c1ccccc1)c1ccccc1	≥ 100 µM
O=C(NC(c1ccccc1)c1ccc(Cl)cc1)NC(c1ccccc1)c1ccc(Cl)cc1 (stereo not drawn)	> 100 µM

Second part, the molecule after the results:

IC50	SMILES
27 µM	COc1cc(NC(C)CCCNC(=O)NNC(=O)N(C)C(c2ccccc2)c2ccccc2)c2ncccc2c1 (stereo not drawn)
> 100 µM	CN(C(=O)NN)C(c1ccccc1)c1ccccc1

Test system: L1210
Assay: Cytostatic activity against mouse L1210 cells assessed as growth inhibition after 3 to 4 days by MTT assay
Assay type: functional, cell-based
Settings: not given

SMILES	IC50
CCOC(=O)NC(c1ccccc1)c1ccc(Cl)cc1 (stereo not drawn)	> 250 µM
CN(C(=O)n1nnc2ccccc21)C(c1ccccc1)c1ccccc1	15 µM
O=C(NC(c1ccccc1)c1ccc(Cl)cc1)NC(c1ccccc1)c1ccc(Cl)cc1 (stereo not drawn)	250 µM

Second part, the molecule after the results:

IC50	SMILES
16 µM	COc1cc(NC(C)CCCNC(=O)NNC(=O)N(C)C(c2ccccc2)c2ccccc2)c2ncccc2c1 (stereo not drawn)
≥ 250 µM	CN(C(=O)NN)C(c1ccccc1)c1ccccc1

Molecular target: Lipoxygenase (Glycine max, UniProt Q39829)
Assay: Inhibition of soybean LOX using sodium linoleate as substrate by spectrophotometry
Settings: read-out: IC50

IC50	SMILES
87.5 µM	CN(C(=O)n1nnc2ccccc21)C(c1ccccc1)c1ccccc1

Test system: not listed separately
Assay: Antioxidant activity assessed as DPPH scavenging activity at 100 uM after 60 mins by spectrophotometry
Assay type: physicochemical
Settings: 1 h

SMILES	Activity
CCOC(=O)NC(c1ccccc1)c1ccc(Cl)cc1 (stereo not drawn)	Not Active
CN(C(=O)n1nnc2ccccc21)C(c1ccccc1)c1ccccc1	Not Active
O=C(NC(c1ccccc1)c1ccc(Cl)cc1)NC(c1ccccc1)c1ccc(Cl)cc1 (stereo not drawn)	Not Active

Other lines, results leading:

Activity	SMILES
73%	COc1cc(NC(C)CCCNC(=O)NNC(=O)N(C)C(c2ccccc2)c2ccccc2)c2ncccc2c1 (stereo not drawn)
47%	CN(C(=O)NN)C(c1ccccc1)c1ccccc1

Test system: not listed separately
Assay: Cytostatic activity against human H460 cells assessed as growth inhibition after 3 to 4 days by MTT assay
Assay type: functional, cell-based
Settings: NCI-H460

SMILES	IC50
CCOC(=O)NC(c1ccccc1)c1ccc(Cl)cc1 (stereo not drawn)	> 100 µM
CN(C(=O)n1nnc2ccccc21)C(c1ccccc1)c1ccccc1	27 µM
COc1cc(NC(C)CCCNC(=O)NNC(=O)N(C)C(c2ccccc2)c2ccccc2)c2ncccc2c1 (stereo not drawn)	16 µM
CN(C(=O)NN)C(c1ccccc1)c1ccccc1	> 100 µM
O=C(NC(c1ccccc1)c1ccc(Cl)cc1)NC(c1ccccc1)c1ccc(Cl)cc1 (stereo not drawn)	> 100 µM

Test system: HeLa
Assay: Cytostatic activity against human HeLa cells assessed as growth inhibition after 3 to 4 days by MTT assay
Assay type: functional, cell-based
Settings: not given

SMILES	IC50
CCOC(=O)NC(c1ccccc1)c1ccc(Cl)cc1 (stereo not drawn)	> 250 µM
CN(C(=O)n1nnc2ccccc21)C(c1ccccc1)c1ccccc1	25 µM
O=C(NC(c1ccccc1)c1ccc(Cl)cc1)NC(c1ccccc1)c1ccc(Cl)cc1 (stereo not drawn)	> 250 µM

The next lines start with the values.

IC50	SMILES
22 µM	COc1cc(NC(C)CCCNC(=O)NNC(=O)N(C)C(c2ccccc2)c2ccccc2)c2ncccc2c1 (stereo not drawn)
174 µM	CN(C(=O)NN)C(c1ccccc1)c1ccccc1

Test system: not listed separately
Assay: Antioxidant activity assessed as inhibition of lipid peroxidation at 100 uM by spectrophotometry
Assay type: physicochemical
Settings: not given

SMILES	inhibition (INH)
CCOC(=O)NC(c1ccccc1)c1ccc(Cl)cc1 (stereo not drawn)	21%
CN(C(=O)n1nnc2ccccc21)C(c1ccccc1)c1ccccc1	76%
O=C(NC(c1ccccc1)c1ccc(Cl)cc1)NC(c1ccccc1)c1ccc(Cl)cc1 (stereo not drawn)	33%

Other lines, results leading:

inhibition (INH)	SMILES
69%	COc1cc(NC(C)CCCNC(=O)NNC(=O)N(C)C(c2ccccc2)c2ccccc2)c2ncccc2c1 (stereo not drawn)
7%	CN(C(=O)NN)C(c1ccccc1)c1ccccc1

Test system: MCF7
Assay: Cytostatic activity against human MCF7 cells assessed as growth inhibition after 3 to 4 days by MTT assay
Assay type: functional, cell-based
Settings: not given

SMILES	IC50
CCOC(=O)NC(c1ccccc1)c1ccc(Cl)cc1 (stereo not drawn)	> 100 µM
CN(C(=O)n1nnc2ccccc21)C(c1ccccc1)c1ccccc1	23 µM
O=C(NC(c1ccccc1)c1ccc(Cl)cc1)NC(c1ccccc1)c1ccc(Cl)cc1 (stereo not drawn)	> 100 µM

Second part, the molecule after the results:

IC50	SMILES
5 µM	COc1cc(NC(C)CCCNC(=O)NNC(=O)N(C)C(c2ccccc2)c2ccccc2)c2ncccc2c1 (stereo not drawn)
≥ 100 µM	CN(C(=O)NN)C(c1ccccc1)c1ccccc1

Molecular target: Lipoxygenase (Glycine max) (UniProt Q39829)
Assay: Inhibition of soybean LOX using sodium linoleate as substrate at 100 uM by spectrophotometry
Settings: not given

inhibition	SMILES
44%	COc1cc(NC(C)CCCNC(=O)NNC(=O)N(C)C(c2ccccc2)c2ccccc2)c2ncccc2c1 (stereo not drawn)
38%	O=C(NC(c1ccccc1)c1ccc(Cl)cc1)NC(c1ccccc1)c1ccc(Cl)cc1 (stereo not drawn)

Test system: not listed separately
Assay: Antioxidant activity assessed as DPPH scavenging activity at 100 uM after 20 mins by spectrophotometry
Assay type: physicochemical
Settings: not given

SMILES	Activity
CCOC(=O)NC(c1ccccc1)c1ccc(Cl)cc1 (stereo not drawn)	Not Active
CN(C(=O)n1nnc2ccccc21)C(c1ccccc1)c1ccccc1	3%
O=C(NC(c1ccccc1)c1ccc(Cl)cc1)NC(c1ccccc1)c1ccc(Cl)cc1 (stereo not drawn)	Not Active

The next lines start with the values.

Activity	SMILES
44%	COc1cc(NC(C)CCCNC(=O)NNC(=O)N(C)C(c2ccccc2)c2ccccc2)c2ncccc2c1 (stereo not drawn)
24%	CN(C(=O)NN)C(c1ccccc1)c1ccccc1

Test system: CCRF-CEM
Assay: Cytostatic activity against human CEM cells assessed as growth inhibition after 3 to 4 days by MTT assay
Assay type: functional, cell-based
Settings: not given

SMILES	IC50
CCOC(=O)NC(c1ccccc1)c1ccc(Cl)cc1 (stereo not drawn)	> 250 µM
CN(C(=O)n1nnc2ccccc21)C(c1ccccc1)c1ccccc1	24 µM
O=C(NC(c1ccccc1)c1ccc(Cl)cc1)NC(c1ccccc1)c1ccc(Cl)cc1 (stereo not drawn)	> 250 µM

Now from value to molecule:

IC50	SMILES
10 µM	COc1cc(NC(C)CCCNC(=O)NNC(=O)N(C)C(c2ccccc2)c2ccccc2)c2ncccc2c1 (stereo not drawn)
127 µM	CN(C(=O)NN)C(c1ccccc1)c1ccccc1
